Counter-ions that a name gives are not always drawn.
Legend:
acne vulgaris = assay: Case with treatment of acne vulgaris; assay type: in vivo, human; conditions: person; for Reddened inflamed area surrounding the lesion: topical treatment of acne vulgaris
Description: A person was suffering from acne vulgaris characterised by comedones and some inflammatory lesions. They had previously regularly used a 5% benzoyl peroxide cream to treat the condition. During a flare up of the condition they applied a 5.0% aqueous solution of Pemirolast (potassium salt) once daily for four weeks to the areas affected. […] The treatment was followed and assessed by a physician.

IL-1α = assay: Cytokine production, LPS induced human PBMC; assay type: cell-based; conditions: stated in words only, no value
Experimental: The inhibition of Pemirolast on cytokine production was determined using the assay “LPS induced human PBMC”.

[1] = test system: arachidonic acid-induced ear inflammation; assay: Arachidonic acid-induced ear-inflammation test in mice; assay type: in vivo, female BALB/cA mice; conditions: intraperitoneal, 30 minutes before arachidonic acid; ear oedema one hour after
Experimental: The anti-inflammatory potential of Pemirolast can be tested in “arachidonic acid-induced ear-inflammation test in mice”, a commonly employed method for screening and evaluation of antiinflammatory drugs. Dexamethasone was employed as reference compound.
The study can be performed in female BALB/cA mice from M & B A/S, DK-8680 Ry. The test substances (various concentration of Pemirolast dissolved in aqueous solutions) and the reference compound are administered intraperitoneally in volumes of 20 ml per kg body weight 30 minutes before application of arachidonic acid to the ear. All groups are then treated with 20 μl arachidonic acid, 100 mg/ml in acetone, on the right ear.
One hour after the application of arachidonic acid the mice are sacrificed, the ears cut from the tip with a punch biopsy knife (8 mm diameter) and weighed. Mean weights and standard deviations are calculated. Relative ear oedema is assessed as the weight difference between right and left ear of each mouse expressed as percent of the left ear. Percent inhibition of the relative ear oedema compared with the vehicle treated groups is calculated for the test substance and reference compound treated groups. […]

PPAR-α = target: T1, PPAR-α (Homo sapiens, UniProt Q07869); assay: Gal-4-PPAR luciferase reporter assay in HEK 293-T (Indigo Biosciences); assay type: cell-based; conditions: % inhibition 50, 14 hours treatment, read-out: Concentration of Pemirolast giving 50 % inhibition of PPAR-α
T1 sequence (Q07869 200-468 limits assumed): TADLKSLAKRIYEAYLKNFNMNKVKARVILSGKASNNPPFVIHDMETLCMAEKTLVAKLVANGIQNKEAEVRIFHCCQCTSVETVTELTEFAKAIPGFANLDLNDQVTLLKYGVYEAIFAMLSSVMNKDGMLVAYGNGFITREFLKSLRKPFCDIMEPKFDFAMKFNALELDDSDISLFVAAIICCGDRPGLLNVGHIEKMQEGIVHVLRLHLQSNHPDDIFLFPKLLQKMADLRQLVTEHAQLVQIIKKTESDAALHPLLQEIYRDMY
Experimental: (§1) The inhibitory effect of Pemirolast on PPAR was determined by Indigo Biosciences. The following assay procedure was used: Compounds were diluted in DMSO to a final concentration of […] and serial dilutions prepared. The cell line HEK 293-T was transiently transfected with Gal-4-human PPARα, γ, Gal-4-luciferase and pRL (renilla, to correct for efficiency). The cells were treated with Pemirolast or with positive controls (ciprofibrate, or rosiglitazone) for 14 hours. The cells were lysed and luciferase and renilla activity were determined.

PPAR-γ = target: T2, PPAR-γ (Homo sapiens, UniProt P37231); assay: as above; assay type: cell-based; conditions: % inhibition 50, 14 hours treatment, read-out: Concentration of Pemirolast giving 50 % inhibition of PPAR-γ
T2 sequence (P37231 238-505 limits assumed): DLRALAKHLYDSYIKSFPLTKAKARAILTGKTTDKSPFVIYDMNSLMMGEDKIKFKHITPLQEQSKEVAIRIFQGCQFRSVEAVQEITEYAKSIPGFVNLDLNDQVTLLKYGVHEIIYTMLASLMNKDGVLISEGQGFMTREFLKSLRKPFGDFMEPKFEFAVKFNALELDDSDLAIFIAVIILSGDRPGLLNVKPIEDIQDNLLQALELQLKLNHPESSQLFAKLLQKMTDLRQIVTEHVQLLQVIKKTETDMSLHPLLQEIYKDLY
Experimental: as §1

[2] = 5.0% aqueous solution once daily for four weeks, topical

## Cc1cccn2c(=O)c(-c3nnn[nH]3)cnc12 [Pemirolast (potassium salt)]
Acne vulgaris; [2]
  Inflammatory acne lesions after treatment: completely recessed
  Scarring after treatment: without any noticeable scarring
Acne vulgaris
  Reddened inflamed area surrounding the lesion: also recessed

## Cc1cccn2c(=O)c(-c3nnn[nH]3)cnc12 [Pemirolast, 9-methyl-3-(1H-tetrazol-5-yl)-4H-pyrido[1,2-a]pyrimidin-4-one]
IL-1α
  Inhibition of IL-1α: inhibits
[1]
  Effect on inflammatory reaction in the arachidonic acid treated ear: significantly prevented the inflammatory reaction
PPAR-α
  IC50: 17 µM
PPAR-γ
  IC50: 20 µM

## O=C(OOC(=O)c1ccccc1)c1ccccc1 [benzoyl peroxide]
Acne vulgaris
  Reddened inflamed area surrounding the lesion: did not remove the reddened inflamed area
